Test results published in patent US20220089575A1, “FARNESOID X RECEPTOR AGONISTS AND USES THEREOF” (Metacrine, Inc., priority 2017, published 2022).

molecular target: T1, hFXR (Homo sapiens, UniProt Q96RI1); test: In Vitro FXR Assay (TK): TK-ECRE-luc reporter in transfected CV-1 cells; assay type: cell-based; details: 18 hrs, luminescence, maximum efficacy of <25% of the Fexarmine control classified as '+'
T1 construct: expressed in transfected cells; host or cells: CV-1 cells
T1 sequence (Q96RI1 1-486): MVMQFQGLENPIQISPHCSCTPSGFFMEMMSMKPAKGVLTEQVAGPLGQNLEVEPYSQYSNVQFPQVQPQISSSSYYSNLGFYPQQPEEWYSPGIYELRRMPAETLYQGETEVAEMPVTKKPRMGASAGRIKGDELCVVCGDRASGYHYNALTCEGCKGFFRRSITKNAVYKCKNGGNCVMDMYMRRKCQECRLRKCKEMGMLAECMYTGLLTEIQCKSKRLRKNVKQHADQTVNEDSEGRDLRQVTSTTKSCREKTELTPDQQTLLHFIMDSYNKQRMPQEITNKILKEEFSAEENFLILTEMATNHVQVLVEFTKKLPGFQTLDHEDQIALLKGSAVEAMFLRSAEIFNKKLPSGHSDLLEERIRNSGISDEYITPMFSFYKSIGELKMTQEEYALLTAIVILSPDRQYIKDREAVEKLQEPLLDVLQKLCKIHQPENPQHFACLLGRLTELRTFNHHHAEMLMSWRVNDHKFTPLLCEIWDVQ
T1 sequence (P19793 1-462 partner): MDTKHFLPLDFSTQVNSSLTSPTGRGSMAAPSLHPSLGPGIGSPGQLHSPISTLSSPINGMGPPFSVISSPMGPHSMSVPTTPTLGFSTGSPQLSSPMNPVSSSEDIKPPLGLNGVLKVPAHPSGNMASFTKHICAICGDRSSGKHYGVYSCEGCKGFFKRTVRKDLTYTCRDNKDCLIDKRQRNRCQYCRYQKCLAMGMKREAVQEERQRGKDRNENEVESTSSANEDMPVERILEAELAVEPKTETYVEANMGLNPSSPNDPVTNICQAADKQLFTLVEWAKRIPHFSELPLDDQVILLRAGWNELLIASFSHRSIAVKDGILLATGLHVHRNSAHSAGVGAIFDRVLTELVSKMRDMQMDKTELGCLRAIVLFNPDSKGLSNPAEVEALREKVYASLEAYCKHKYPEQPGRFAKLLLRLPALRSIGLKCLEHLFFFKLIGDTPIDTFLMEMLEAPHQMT
Method in brief: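 CV-1, transient co-transfection: hFXR + hRXR + TK-ECRE-luc + pCMX-YFP; charcoal-stripped serum. 18 h post-transfection, DMSO serial dilutions of cpd added; 18 h incubation; lysis, luminescence.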

EC50	SMILES
≤ 250 nM	COc1ccc([C@H]2CC[C@H](CN(c3cc(-c4cnn(C5CC5)c4)ccn3)C(=O)[C@H]3CC[C@H](NC(=O)COC(C)=O)CC3)CC2)cc1C [Compound 26.31, 2-((trans-4-(4-(1-Cyclopropyl-1H-pyrazol-4-yl)pyridin-2-yl)((trans-4-(4-methoxy-3-methylphenyl)cyclohexyl)methyl)carbamoyl)cyclohexyl)amino)-2-oxoethyl acetate]
≤ 250 nM	COc1ncc(-c2cccc(N(C[C@H]3CC[C@H](c4ccc(OC)c(C)c4)CC3)C(=O)[C@H]3CC[C@H](OCCCO)CC3)c2)s1 [Compound 13.04, trans-4-(3-Hydroxypropoxy)-N-((trans-4-(4-methoxy-3-methylphenyl)cyclohexyl)methyl)-N-(3-(2-methoxythiazol-5-yl)phenyl) cyclohexanecarboxamide]
≤ 250 nM	COc1ccc([C@H]2CC[C@H](CN(c3cccc(-c4cnn(C(C)C)c4)c3)C(=O)[C@H]3CC[C@H](CC(=O)O)CC3)CC2)nc1C [Compound 20.13, 2-(trans-4-((3-(1-Isopropyl-1H-pyrazol-4-yl)phenyl)((trans-4-(5-methoxy-6-methylpyridin-2-yl)cyclohexyl)methyl)carbamoyl)cyclohexyl)acetic acid]
≤ 250 nM	C#CC1CN(C(=O)O[C@H]2CC[C@H](C(=O)N(C[C@H]3CC[C@H](c4ccc(OC)c(C)n4)CC3)c3cc(-c4coc(C5CC5)n4)ccn3)CC2)C1 [Compound 7.98, trans-4-((4-(2-Cyclopropyloxazol-4-yl)pyridine-2-yl)((trans-4-(5-methoxy-6-methylpyridin-2-yl)cyclohexyl)methyl)carbamoyl)cyclohexyl 3-ethynylazetidine-1-carboxylate]
≤ 250 nM	COc1ccc([C@H]2CC[C@H](CN(c3cccc(-c4cnn(C5CC5)c4)c3)C(=O)[C@H]3CC[C@H](OC(=O)NCCNS(C)(=O)=O)CC3)CC2)cc1C [Compound 26.24, trans-4-((3-(1-Cyclopropyl-1H-pyrazol-4-yl)phenyl)((trans-4-(4-methoxy-3-methylphenyl)cyclohexyl)methyl)carbamoyl)cyclohexyl (2-(methylsulfonamido)ethyl)carbamate]
≤ 250 nM	COc1ccc([C@H]2CC[C@H](CN(c3cccc(-c4cnc(C5CC5)s4)c3)C(=O)[C@H]3CC[C@H](NC(=O)COCCO)CC3)CC2)cc1C [Compound 32.02, trans-N-(3-(2-Cyclopropylthiazol-5-yl)phenyl)-4-(2-(2-hydroxyethoxy)acetamido)-N-((trans-4-(4-methoxy-3-methylphenyl)cyclohexyl)methyl) cyclohexanecarboxamide]
≤ 250 nM	COc1ccc(C23CCC(CN(c4cc(-c5cnc(C6CC6)s5)ccn4)C(=O)[C@H]4CC[C@H](C(=O)O)CC4)(CC2)CC3)cc1C [Compound 17.07, trans-4-((4-(2-Cyclopropylthiazol-5-yl)pyridin-2-yl)((4-(4-methoxy-3-methylphenyl)bicyclo[2.2.2]octan-1-yl)methyl)carbamoyl) cyclohexanecarboxylic acid]
≤ 250 nM	COc1ccc([C@H]2CC[C@H](CN(c3cccc(-c4cnn(C5CC5)c4)c3)C(=O)[C@H]3CC[C@H](NC(=O)C4CCC4)CC3)CC2)cc1C [Compound 30.01, trans-4-(Cyclobutanecarboxamido)-N-(3-(1-cyclopropyl-1H-pyrazol-4-yl)phenyl)-N-((trans-4-(4-methoxy-3-methylphenyl)cyclohexyl)methyl) cyclohexanecarboxamide]

Further lines, the compound ahead of its results:

SMILES	EC50
COc1ccc([C@H]2CC[C@H](CN(c3cc(-c4coc(C5CC5)n4)ccn3)C(=O)[C@H]3CC[C@H](OC(=O)N[C@H](C)CO)CC3)CC2)nc1C [Compound 6.94, trans-4-((4-(2-Cyclopropyloxazol-4-yl)pyridin-2-yl)((trans-4-(5-methoxy-6-methylpyridin-2-yl)cyclohexyl)methyl)carbamoyl)cyclohexyl ((R)-1-hydroxypropan-2-yl)carbamate]	≤ 250 nM
COc1ccc([C@H]2CC[C@H](CN(c3cccc(-c4cnn(C5CC5)c4)c3)C(=O)[C@H]3CC[C@H](OC(=O)NC4CN(C)C4)CC3)CC2)cc1C [Compound 6.18, trans-4-((3-(1-Cyclopropyl-1H-pyrazol-4-yl)phenyl)((trans-4-(4-methoxy-3-methylphenyl)cyclohexyl)methyl)carbamoyl)cyclohexyl (1-methylazetidin-3-yl)carbamate]	≤ 250 nM
CNC(=O)O[C@H]1CC[C@H](C(=O)N(C[C@H]2CC[C@H](c3ccc(OC)c(C)n3)CC2)c2cc(-c3coc(C(C)C)n3)ccn2)CC1 [Compound 5.43, trans-4-((4-(2-Isopropyloxazol-4-yl)pyridine-2-yl)((trans-4-(5-methoxy-6-methylpyridin-2-yl)cyclohexyl)methyl)carbamoyl)cyclohexyl methylcarbamate]	≤ 250 nM
COc1ccc([C@H]2CC[C@H](CN(c3cc(-c4coc(C(C)C)n4)ccn3)C(=O)[C@H]3CC[C@H](OC(=O)N4CC(OC)C4)CC3)CC2)nc1C [Compound 7.82, trans-4-((4-(2-Isopropyloxazol-4-yl)pyridine-2-yl)((trans-4-(5-methoxy-6-methylpyridin-2-yl)cyclohexyl)methyl)carbamoyl)cyclohexyl 3-methoxyazetidine-1-carboxylate]	≤ 250 nM
CNC(=O)O[C@H]1CC[C@H](C(=O)N(C[C@H]2CC[C@H](c3ccc(OC)c(C#N)c3)CC2)c2cccc(-c3coc(C4CC4)n3)c2)CC1 [Compound 5.35, trans-4-(((trans-4-(3-Cyano-4-methoxyphenyl)cyclohexyl)methyl)(3-(2-cyclopropyloxazol-4-yl)phenyl)carbamoyl)cyclohexyl methylcarbamate]	≤ 250 nM
CNC(=O)O[C@H]1CC[C@H](C(=O)N(C[C@H]2CC[C@H](c3ccc4c(c3)c(F)nn4C)CC2)c2cccc(-c3cnc(C4CC4)s3)c2)CC1 [Compound 1.03, trans-4-((3-(2-Cyclopropylthiazol-5-yl)phenyl)((trans-4-(3-fluoro-1-methyl-1H-indazol-5-yl)cyclohexyl)methyl)carbamoyl)cyclohexyl methylcarbamate]	≤ 250 nM
COc1ccc([C@H]2CC[C@H](CN(c3cccc(-c4cnn(C5CC5)c4)c3)C(=O)[C@H]3CC[C@H](OC(=O)NCc4c[nH]cn4)CC3)CC2)cc1C [Compound 4.15, trans-4-((3-(1-Cyclopropyl-1H-pyrazol-4-yl)phenyl)((trans-4-(4-methoxy-3-methylphenyl)cyclohexyl)methyl)carbamoyl)cyclohexyl ((1H-imidazol-4-yl)methyl)carbamate]	≤ 250 nM
COc1ccc([C@H]2CC[C@H](CN(c3cc(-c4coc(C5CC5)n4)ccn3)C(=O)[C@H]3CC[C@H](OC(=O)N4CC(O)C4)CC3)CC2)cc1C [Compound 7.67, trans-4-((4-(2-Cyclopropyloxazol-4-yl)pyridine-2-yl)((trans-4-(4-methoxy-3-methylphenyl)cyclohexyl)methyl)carbamoyl)cyclohexyl 3-hydroxyazetidine-1-carboxylate]	≤ 250 nM
COc1ccc([C@H]2CC[C@H](CN(c3cccc(-c4cnc(C5CC5)s4)c3)C(=O)[C@H]3CC[C@H](OC(=O)NCCO)CC3)CC2)nc1C#N [Compound 6.06, trans-4-(((trans-4-(6-Cyano-5-methoxypyridin-2-yl)cyclohexyl)methyl) (3-(2-cyclopropylthiazol-5-yl)phenyl)carbamoyl)cyclohexyl (2-hydroxyethyl)carbamate]	≤ 250 nM
COc1ccc([C@H]2CC[C@H](CN(c3cc(-c4coc(C5CC5)n4)ccn3)C(=O)[C@H]3CC[C@H](OC(=O)N(C)C)CC3)CC2)nc1C [Compound 7.78, trans-4-((4-(2-Cyclopropyloxazol-4-yl)pyridine-2-yl)((trans-4-(5-methoxy-6-methylpyridin-2-yl)cyclohexyl)methyl)carbamoyl)cyclohexyl dimethylcarbamate]	≤ 250 nM
COc1ccc([C@H]2CC[C@H](CN(c3cc(-c4cnn(C(C)C)c4)ccn3)C(=O)[C@H]3CC[C@H](OC(=O)N4CC(N(C)C)C4)CC3)CC2)nc1C [Compound 7.58, trans-4-((4-(1-Isopropyl-1H-pyrazol-4-yl)pyridin-2-yl)((trans-4-(5-methoxy-6-methylpyridin-2-yl)cyclohexyl)methyl)carbamoyl)cyclohexyl 3-(dimethylamino)azetidine-1-carboxylate]	≤ 250 nM
COc1ccc([C@H]2CC[C@H](CN(c3cc(-c4cnn(C5CC5)c4)ccn3)C(=O)[C@H]3CC[C@H](OC(=O)NCCO)CC3)CC2)cc1C [Compound 4.19, trans-4-((4-(1-Cyclopropyl-1H-pyrazol-4-yl)pyridin-2-yl)((trans-4-(4-methoxy-3-methylphenyl)cyclohexyl)methyl)carbamoyl)cyclohexyl (2-hydroxyethyl)carbamate]	≤ 250 nM
